Like-named read-outs stand apart in the source and are kept apart here.
What was measured:
CAR-T cells = test: CAR-T cell expansion assay (KIP-1 or CD3/CD28 stimulation); details: for % viability: KIP-1
[1] = test system: NALM6.GFP.LUC.CD19 target cells; test: Serial killing assay of CAR-T, percent cytotoxicity by luciferase detection; details: repeat stimulation rounds
CD19 CAR T cells = test: CAR T cell cytokine production (Luminex) under CD19 K562, KIP-1 or CD2/3/28 stimulation
Procedure: Cryopreserved healthy donor CLP CD19 CAR T cells were thawed and rested overnight in 100 U/ml of IL-2 at 1×10^6/ml. 2.5×10^5 CD19 CART cells were plated in 96-well RB plate wells in a total volume of 200 μl of R10 culture media. […] CD19 CART cell cytokine production was allowed to proceed through 72 hours in the presence of stimulator and JAKi or steroid. Following 72 h of culture, 100 μl of the cell supernatant of each well were harvested and stored at −80° C. for later Luminex/Bioplex-200 cytokine analysis. Briefly, stored supernatants were thawed and 50 μl of the sample was assayed for cytokines using a ThermoFisher Procarta Plex 19-plex human cytokine assay kit (ThermoFisher, Carlsbad, CA) according to kit manufacturer's instructions and detected using a BioRad Bioplex-200 instrument. The data points generated from the luminex cytokine assay were transferred to a GraphPad PRISM IC50 dose-response curve analysis to generate IC50 or potency values for the JAKi's and steroids tested.

For `Nc1nc2cccc(-c3ccc(CN4CCS(=O)(=O)CC4)cc3)n2n1` [GS-829845], the “% viability” value (CAR-T cells; dose 1000 nM, day 4) was 48.4%, the “% viability” value (CAR-T cells; dose 1000 nM, day 8) was 63% and the “% viability” value (CAR-T cells; dose 1000 nM, day 12) was 82.5%. The “% viability” value (CAR-T cells; dose 5000 nM, day 0) was 75%, the “% viability” value (CAR-T cells; dose 5000 nM, day 4) was 60% and the “% viability” value (CAR-T cells; dose 5000 nM, day 8) was 87%. The “% viability” value (CAR-T cells; dose 5000 nM, day 12) was 81.1%, the “effect on T cell expansion” value (CAR-T cells; at the doses tested (Table 40)) was “little to no effect” and the “impact on CAR-T serial killing (percent cytotoxicity)” value ([1]; E:T of 1:1, dose titration) was “enhance serial killing”. For the same molecule, the “impact on CAR-T serial killing (percent cytotoxicity)” value ([1]; E:T of 1:3, dose titration) was “no impact”, the “suppression of cytokine production from CAR T cells (breadth and magnitude)” value (CD19 CAR T cells) was “weaker in activity compared to filgotinib and other JAK inhibitors” and the “Suppression of cytokine production, IL-6 (IC50)” value (“Suppression … IL-6 (IC50)” for short) (CD19 CAR T cells; CD3/CD28 stimulation, 72 h) was “Suppress”. The “Suppression of cytokine production, MCP-1 (IC50)” value (from here on “Suppression … MCP-1 (IC50)”) (CD19 CAR T cells; CD3/CD28 stimulation, 72 h) was “Suppress”, the “Suppression of cytokine production, TNFa (IC50)” value (shortened to “Suppression … TNFa (IC50)”) (CD19 CAR T cells; CD3/CD28 stimulation, 72 h) was “Suppress” and the “Suppression … IL-6 (IC50)” value (CD19 CAR T cells; K562-CD19 stimulation, 72 h) was “Suppress”. The “Suppression … MCP-1 (IC50)” value (CD19 CAR T cells; K562-CD19 stimulation, 72 h) was “Suppress”, the “Suppression of cytokine production, MIG (IC50)” value (CD19 CAR T cells; K562-CD19 stimulation, 72 h) was “Suppress” and the “Suppression … TNFa (IC50)” value (CD19 CAR T cells; K562-CD19 stimulation, 72 h) was “Suppress”. For the same molecule, the “Suppression … IL-6 (IC50)” value (CD19 CAR T cells; KIP-1 stimulation, 72 h) was “Suppress”, the “Suppression … MCP-1 (IC50)” value (CD19 CAR T cells; KIP-1 stimulation, 72 h) was “Suppress” and the “Suppression … TNFa (IC50)” value (CD19 CAR T cells; KIP-1 stimulation, 72 h) was “Suppress”. It also gave an IC50 (CD19 CAR T cells; read-out: Suppression of cytokine production, GMCSF (IC50), CD3/CD28 stimulation, 72 h) of over 10 µM, an IC50 (CD19 CAR T cells; read-out: Suppression of cytokine production, GMCSF (IC50), K562-CD19 stimulation, 72 h) of over 10 µM and an IC50 (CD19 CAR T cells; read-out: Suppression of cytokine production, GMCSF (IC50), KIP-1 stimulation, 72 h) of over 10 µM. The IC50 (CD19 CAR T cells; read-out: Suppression of cytokine production, GzB (IC50), CD3/CD28 stimulation, 72 h) was over 10 µM, the IC50 (CD19 CAR T cells; read-out: Suppression of cytokine production, GzB (IC50), K562-CD19 stimulation, 72 h) was over 10 µM and the IC50 (CD19 CAR T cells; read-out: Suppression of cytokine production, GzB (IC50), KIP-1 stimulation, 72 h) was over 10 µM. It also gave an IC50 (CD19 CAR T cells; read-out: Suppression of cytokine production, IFNg (IC50), CD3/CD28 stimulation, 72 h) of over 10 µM, an IC50 (CD19 CAR T cells; read-out: Suppression of cytokine production, IFNg (IC50), K562-CD19 stimulation, 72 h) of over 10 µM and an IC50 (CD19 CAR T cells; read-out: Suppression of cytokine production, IFNg (IC50), KIP-1 stimulation, 72 h) of over 10 µM. The IC50 (CD19 CAR T cells; read-out: Suppression of cytokine production, IL-2Ra (IC50), CD3/CD28 stimulation, 72 h) was 4.74 µM, the IC50 (CD19 CAR T cells; read-out: Suppression of cytokine production, IL-2Ra (IC50), K562-CD19 stimulation, 72 h) was over 10 µM and the IC50 (CD19 CAR T cells; read-out: Suppression of cytokine production, IL-2Ra (IC50), KIP-1 stimulation, 72 h) was over 10 µM. For the same molecule, the IC50 (CD19 CAR T cells; read-out: Suppression of cytokine production, IL-8 (IC50), CD3/CD28 stimulation, 72 h) was over 10 µM, the IC50 (CD19 CAR T cells; read-out: Suppression of cytokine production, IL-8 (IC50), K562-CD19 stimulation, 72 h) was over 10 µM and the IC50 (CD19 CAR T cells; read-out: Suppression of cytokine production, IL-8 (IC50), KIP-1 stimulation, 72 h) was over 10 µM. It also gave an IC50 (CD19 CAR T cells; read-out: Suppression of cytokine production, IL-10 (IC50), K562-CD19 stimulation, 72 h) of 4.01 µM, an IC50 (CD19 CAR T cells; read-out: Suppression of cytokine production, IL-10 (IC50), KIP-1 stimulation, 72 h) of 3.93 µM and an IC50 (CD19 CAR T cells; read-out: Suppression of cytokine production, MIG (IC50), CD3/CD28 stimulation, 72 h) of over 10 µM. It also gave an IC50 (CD19 CAR T cells; read-out: Suppression of cytokine production, MIG (IC50), KIP-1 stimulation, 72 h) of over 10 µM, an IC50 (CD19 CAR T cells; read-out: Suppression of cytokine production, MIP-1a (IC50), CD3/CD28 stimulation, 72 h) of over 10 µM and an IC50 (CD19 CAR T cells; read-out: Suppression of cytokine production, MIP-1a (IC50), K562-CD19 stimulation, 72 h) of over 10 µM. It also gave an IC50 (CD19 CAR T cells; read-out: Suppression of cytokine production, MIP-1a (IC50), KIP-1 stimulation, 72 h) of over 10 µM, an IC50 (CD19 CAR T cells; read-out: Suppression of cytokine production, MIP-1b (IC50), CD3/CD28 stimulation, 72 h) of over 10 µM and an IC50 (CD19 CAR T cells; read-out: Suppression of cytokine production, MIP-1b (IC50), K562-CD19 stimulation, 72 h) of over 10 µM. The IC50 (CD19 CAR T cells; read-out: Suppression of cytokine production, MIP-1b (IC50), KIP-1 stimulation, 72 h) was over 10 µM, the IC50 (CD19 CAR T cells; read-out: Suppression of cytokine production, Perforin (IC50), CD3/CD28 stimulation, 72 h) was over 10 µM and the IC50 (CD19 CAR T cells; read-out: Suppression of cytokine production, Perforin (IC50), K562-CD19 stimulation, 72 h) was over 10 µM. The IC50 (CD19 CAR T cells; read-out: Suppression of cytokine production, Perforin (IC50), KIP-1 stimulation, 72 h) was over 10 µM.
